Consider three compounds from US20100048498A1, “STABLE NON-DIHYDRATE AZITHROMYCIN ORAL SUSPENSIONS” (priority 2004, published 2010).

Assay type in all cases: physicochemical
Series [1] can be described thus: Effects of flavoring components upon azithromycin form F conversion in constituted POS. To be noted: room temperature. The text has this:
POS formulation II was constituted with water and stored identically to serve as a control for this experiment.

The nature of series [2]: Effect of cyclodextrins on non-dihydrate azithromycin form conversion in constituted POS formulation II. Particulars: for % Form A: 18 mls water. Here is the method: The effect of adding a complexing agent such as cyclodextrin on the stability of non-dihydrate azithromycin forms G, M and F against conversion in a constituted POS formulation were evaluated.
Forms G, M and F of azithromycin were formulated into POS formulation II. Various cyclodextrins were added to the POS formulation II and the resulting samples were constituted with 18 mls of water. The suspensions were then stored for 24 hours at room temperature. At the end of the storage time, the suspensions were filtered and the recovered solids were weighed and analyzed by SS-NMR to quantify the presence of azithromycin dihydrate (form A). The control samples were formulated into formulation II with non-dihydrate azithromycin form G, M and F without cyclodextrins and were constituted with water, stored, filtered and analyzed identically to the cyclodextrin samples described above. A control, which had no cyclodextrin was run with each series of experiments. The SS-NMR data are presented in Tables 10, 11, 12 and the results are given as weight percent (% wt), of the recovered azithromycin sample.

Series [3] is described as follows: Stability of non-dihydrate azithromycin in suspension (POS formulation II or bulk drug in water); SS-NMR quantification of form A.
Method: The stability of various forms of non-dihydrate azithromycin, in water and in flavored oral suspensions, was evaluated. Specifically, non-dihydrate azithromycin forms G, M, N, F and J were separately used in POS formulation II. These POS formulations were constituted by mixing with 18 mls of water. The suspensions were then stored for 1, 5 and 10 days at either 5° C. or 30° C. Suspensions of bulk azithromycin forms G, M, N, F and J were also constituted with 18 mls of water and stored under the same conditions.
Upon conclusion of the storage time period the suspensions were filtered and suspended solids collected as described previously.
The mark [4] stands for this setting: POS Formulation II + Hydroxypropyl β-cyclodextrin 11.1 % w/w, 24 hours room temperature (Tables 11, 12).
Setting [5] is: POS Formulation II, no cyclodextrin (Control), 24 hours room temperature (Tables 11, 12).
Where [6] appears, read: Bulk Drug in 18 mls water, 5° C., Day 1.
Setting [7] is: Bulk Drug in 18 mls water, 5° C., Day 10.
Setting [8] is: Bulk Drug in 18 mls water, 30° C., Day 1.
Setting [9] is: Bulk Drug in 18 mls water, 30° C., Day 10.
Where [10] appears, read: Formulation II constituted with 18 mls water, 5° C., Day 1.
Where [11] appears, read: Formulation II constituted with 18 mls water, 5° C., Day 10.
The mark [12] stands for this setting: Formulation II constituted with 18 mls water, 30° C., Day 1.
The mark [13] stands for this setting: Formulation II constituted with 18 mls water, 30° C., Day 10.

For the compound `CCC1OC(=O)C(C)C(O[C@H]2C[C@@](C)(OC)[C@@H](O)C(C)O2)C(C)[C@@H](OC2OC(C)CC(N(C)C)[C@H]2O)[C@@](C)(O)C[C@@H](C)CN(C)[C@H](C)[C@@H](O)[C@]1(C)O` (some centres unmarked) [Form F, azithromycin monohydrate hemi-ethanol solvate], the “% F (SS-NMR Evaluation after 24 hrs constitution)” value in series [1] (Formulation I constituted with 18 mL 0.0577 mg/ml benzaldehyde), in series [1] (Formulation I constituted with 18 mL 0.922 mg/ml 3-methyl-butyl acetate + 0.0577 mg/ml benzaldehyde), in series [1] (Formulation I constituted with 18 mL 0.922 mg/ml 3-methyl-butyl acetate), in series [1] (Formulation I constituted with 18 mL 1.666 mg/ml 3-methyl-butyl acetate) and in series [1] (Formulation II constituted with 18 mL Water) was 0% each time. Besides, the “% Form A” value in series [2] (setting [4]) is on record as 0.0%; in series [2] (POS Formulation II + Sulfobutylether β-cyclodextrin 11.1 % w/w, 24 hours room temperature (Table 11)), 0.0%; in series [2] (POS Formulation II + α-cyclodextrin 1.2 % w/w, 24 hours room temperature (Table 11)) it was 0.0%; in series [2] (setting [5]) it was 74.6%. In addition, the “conversion to form A” value in series [2] (POS Formulation II when cyclodextrins were present, 24 hours room temperature) was “no conversion”. Also, the “% A (azithromycin dihydrate, form A, of recovered azithromycin)” value in series [3] (setting [6]) was 0%; in series [3] (setting [7]), 0%; in series [3] (setting [8]) it was 0%; in series [3] (setting [9]) it was 0%; in series [3] (setting [10]), 6%; in series [3] (setting [11]), 27%. Also, the “% A (azithromycin dihydrate, form A, of recovered azithromycin)” value worked out at 19% in series [3] (setting [12]) and 31% in series [3] (setting [13]).
On to `CCC1OC(=O)C(C)C(O[C@H]2C[C@@](C)(OC)[C@@H](O)C(C)O2)C(C)[C@@H](OC2OC(C)CC(N(C)C)[C@H]2O)[C@@](C)(O)C[C@@H](C)CN(C)[C@H](C)[C@@H](O)[C@]1(C)O` (some centres unmarked) [Form J, azithromycin monohydrate hemi-n-propanol solvate], for which the “% A (azithromycin dihydrate, form A, of recovered azithromycin)” value in series [3] (setting [6]), in series [3] (setting [7]), in series [3] (setting [8]), in series [3] (setting [9]), in series [3] (setting [10]) and in series [3] (setting [11]) was 0% in each case. The “% A (azithromycin dihydrate, form A, of recovered azithromycin)” value in series [3] (setting [12]) and in series [3] (setting [13]) was 0% each time.
For `CCC1OC(=O)C(C)C(O[C@H]2C[C@@](C)(OC)[C@@H](O)C(C)O2)C(C)[C@@H](OC2OC(C)CC(N(C)C)[C@H]2O)[C@@](C)(O)C[C@@H](C)CN(C)[C@H](C)[C@@H](O)[C@]1(C)O` (some centres unmarked) [Form M, azithromycin monohydrate hemi-isopropanol solvate], the “% Form A” value in series [2] (setting [4]) is listed as 0.0%; in series [2] (POS Formulation II + Hydroxypropyl β-cyclodextrin 11.1 % w/w, 24 hours room temperature (Tables 11, 12), listed as form M), “no conversion”; in series [2] (POS Formulation II + β-cyclodextrin 1.2 % w/w, 24 hours room temperature (Table 12)) it was 0.9%; in series [2] (POS Formulation II + β-cyclodextrin 1.2 % w/w, 24 hours room temperature (Table 12), listed as form M), “very small amount of conversion”; in series [2] (POS Formulation II + γ-cyclodextrin 1.2 % w/w, 24 hours room temperature (Table 12)) it was 29.9%; in series [2] (setting [5]), 71.6%. Also, the “% A (azithromycin dihydrate, form A, of recovered azithromycin)” value came to 0% in series [3] (setting [6]); 0% in series [3] (Bulk Drug in 18 mls water, 5° C., Day 5); 0% in series [3] (setting [7]); 0% in series [3] (setting [8]); 0% in series [3] (Bulk Drug in 18 mls water, 30° C., Day 5); 0% in series [3] (setting [9]). Further, the “% A (azithromycin dihydrate, form A, of recovered azithromycin)” value in series [3] (setting [10]) is 23%; in series [3] (Formulation II constituted with 18 mls water, 5° C., Day 5) it was 38%; in series [3] (setting [11]) it was 40%; in series [3] (setting [12]), 28%; in series [3] (Formulation II constituted with 18 mls water, 30° C., Day 5) it was 36%; in series [3] (setting [13]), 62%.
